Test results taken from US20240384350A1, “METHODS OF TREATING CANCER WITH KINASE INHIBITORS” (BOARD OF REGENTS, THE UNIVERSITY OF TEXAS SYSTEM, priority 2021, published 2024).

Test system: EGFR mutations spanning exons 18-21
Test: Ba/F3 panel of 76 cell lines expressing EGFR mutations, selectivity over WT EGFR by structure-function group
Type: cell-based
Settings: Ex20ins mutations, FIG. 5A
From the text: To determine the effect of EGFR mutations on TKI sensitivity, a panel of 76 cell lines expressing EGFR mutations spanning exons 18-21 was generated and screened against 18 known EGFR inhibitors representing 1st (non-covalent), 2nd (covalent), and 3rd (covalent, T790M targeting) generation TKIs, and compounds under investigation for Ex20ins. […] For the various mutations, structure-function based groups were more predictive of drug sensitivity than exon based groups as determined by spearmen correlations (p<0.0001, FIG. 1F, FIG. 2). […]
After 48-72 hours of transduction, 2 μg/ml puromycin (Invitrogen) was added to Ba/F3 cell lines in complete RPMI. […] Plates were incubated for a minimum of 10 minutes, and bioluminescence was determined using a FLUOstar OPTIMA plate reader (BMG LABTECH). […] Statistical differences between groups were determined by ANOVA as described in the figure legends. […]

In the case of `CN(C)C/C=C/C(=O)Nc1cc2c(Nc3ccc(Cl)c(Br)c3)ncnc2cn1` [Tarlox-TKI], the sensitivity in vitro is reported as “sensitive”.
